Test results from patent US6579856B2, “Inhibition of stress activated protein kinase (SAPK) pathway and sensitization of cells to cancer therapies” (priority 1997, dated 2003).
Changes are numbered by the printed parent chain. Names and notes keep the numbering of the source. Where two headings read alike, the source gives them in different places.

What was measured:
Type in all cases: cell-based
SAPK (JNK) = SAPK (JNK) assay in T98G cells; settings: for increase in SAPK (JNK) activity: T98G cells incubated with 250, 500 or 1000 μM for 1 hr
Method: T98G glioblastoma cells were maintained in Dulbecco's modified minimal medium containing 5% fetal calf serum. SAPK (JNK) assays were performed as described by Hibi et al. (supra, 1993). c-jun and dn-jun expression were quantitated using the methods and antibodies described by Grover-Bardwick et al. (Carcinogenesis 15:1667-1674 (1994), which is incorporated herein by reference).
Cisplatin, but not transplatin, forms covalent crosslinks between adjacent guanine or guanine-adenine residues. […] As a control, UV-C irradiation was performed and similarly produced a dose-dependent increase in SAPK activity.

T98G cells = assay: PCR-stop assay of cisplatin-DNA adduct formation and repair
From the text: The PCR-stop assay was used to quantitate cisplatin-DNA adduct formation and subsequent repair (Horton et al., Nucl. Acids. Res. 23:3810-3815 (1995), which is incorporated herein by reference). The assay is based on the observation that the efficiency of amplification of cisplatin-treated DNA is inversely proportional to the degree of platination. […] DNA was amplified quantitatively to produce a 2.7 kb product of the hypoxanthine phosphoribosyl transferase (HPRT) gene and a 0.15 kb nested fragment of the HPRT gene using ^32P-end labeled primers: 5′-[…]-3′(5′ primer; SEQ ID NO: 3) and 5′-[…]-3′ (3′ primer; SEQ ID NO: 4), for the 2.7 kb product; 5′-[…]-3′(5′ nested primer; SEQ ID NO: 5) and the above 3′ primer (SEQ ID NO: 4) for the 0.15 kb product. The 0.15 kb product contains undetectable levels of DNA damage under the present conditions and serves as an internal PCR control and as the basis for normalization of the amount of amplification of the 2.7 kb product. The number of lesions per 2.7 kb product was calculated as […] (cpm damaged DNA/cpm undamaged DNA).
As a control, […], which inhibits DNA repair by inhibiting ADP-ribosylation, was added with cisplatin.

T98G glioblastoma cells = assay: Cell viability (MTS method), T98G cells; settings: for IC50: 1 hr exposure, viability 5 days later, read-out: IC-50 for cisplatin
Method: (§1) Cell viability was determined using the MTS method (Promega Corp.; Madison Wis.), measuring the […] of the formazan product 1 hr after adding the MTS (Gjerset et al., Mol. Carcin. 14:275-285 (1995), which is incorporated herein by reference). Cells were seeded into 96 well plates. After 24 hr, various concentrations of cisplatin or transplatin was added and incubation was continued for 1 hr. Medium was then removed and replaced with fresh medium and cell viability was determined 5 days later. Experiments were performed in quadruplicate; cell viability is expressed as the ratio of the viable cells following treatment to viable untreated cells.
The IC-50 for cisplatin was determined using the T98G cells that express dn-jun, control T98G cells and T98G cells stably transfected with the corresponding empty vector. […] In comparison, expression of dn-jun in T98G cells decreased the IC-50 to 21 μM, which represents a 7-fold increase in sensitivity.

[1] = system: PC3 prostate carcinoma cells; assay: Cell viability, PC3 cells; settings: for IC50: read-out: IC-50 (cisplatin)
Method: as §1
PC3 prostate carcinoma cells were genetically modified to express dn-jun or a second dominant negative c-jun, Tam-67, both of which were under control of the metallothionein promoter (Brown et al., Oncogene 9:791-799 (1994), which is incorporated herein by reference).

AP-1 = assay: Basal AP-1 activity in dn-jun transfected T98G cells; settings: T98G cells stably expressing dn-jun
From the text: (§2) T98G cells were stably transfected with a cDNA encoding the dn-jun (Smeal et al., supra, 1991; Smeal et al., supra, 1992) and clonal lines were obtained. Expression of dn-jun had no effect on basal AP-1 activity or on the enzyme activity of SAPK. In contrast, dn-jun expression inhibited phosphorylation-dependent activation of transcription.

[2] = system: phosphorylation-dependent activation of transcription; assay: Phosphorylation-dependent activation of transcription in dn-jun transfected T98G cells; settings: T98G cells stably expressing dn-jun
From the text: as §2

[3] = system: U87 human glioblastoma cells; assay: Cell viability, U87 cells; settings: U87 cells expressing dn-jun vs parental U87 cells
Method: as §1
(§3) In other experiments, U87 human glioblastoma cells and MCF-7 breast cancer cells were stably transfected with the vector expressing dn-jun and clonal lines were isolated.

[4] = system: MCF-7 breast cancer cells; assay: Cell viability, MCF-7 cells; settings: MCF-7 cells expressing dn-jun vs parental cells
Method: as §1, §3

[5] = ABZ added with cisplatin, 6 hr recovery period

N.N.[Cl][Pt+2][Cl] [transplatin]
increase in SAPK (JNK) activity (SAPK (JNK)): no effect was observed

Nc1ccc(-c2ccc(N)cc2N)cc1 [ABZ, 2-aminobenzidine]
DNA repair (T98G cells; [5]): no repair was observed
level of DNA damage (T98G cells; [5]): substantially increased

N.N.[Cl][Pt][Cl] [cisplatin]
increase in SAPK (JNK) activity (SAPK (JNK)): up to 10 fold
IC50 (T98G glioblastoma cells; T98G cells expressing dn-jun): 21 µM
IC50 (T98G glioblastoma cells; control (untransfected) T98G cells): 147 µM
DNA damage (T98G cells; DNA isolated immediately after 1 hr treatment with 0, 100 or 200 μM): increasing levels of DNA damage
IC50 ([1]; PC3 cells expressing dn-jun): 18 µM
IC50 ([1]; control PC3 cells): 109 µM

B1: dn-jun: dominant negative mutant of c-jun containing alanine-63 and alanine-73 substitutions; cannot be phosphorylated by SAPK (protein, UniProt P05412 1-331, looked up, variant S63A S73A)
Transcription factor Jun: MTAKMETTFYDDALNASFLPSESGPYGYSNPKILKQSMTLNLADPVGSLKPHLRAKNSDLLTAPDVGLLKLAAPELERLIIQSSNGHITTTPTPTQFLCPKNVTDEQEGFAEGFVRALAELHSQNTLPSVTSAAQPVNGAGMVAPAVASVAGGSGSGGFSASLHSEPPVYANLSNFNPGALSSGGGAPSYGAAGLAFPAQPQQQQQPPHHLPQQMPVQHPRLQALKEEPQTVPEMPGETPPLSPIDMESQERIKAERKRMRNRIAASKCRKRKLERIARLEEKVKTLKAQNSELASTANMLREQVAQLKQKVMNHVNSGCQLMLTQQLQTF
enzyme activity of SAPK (SAPK (JNK); T98G cells stably expressing dn-jun): no effect
basal AP-1 activity (AP-1): no effect
phosphorylation-dependent activation of transcription [2]: inhibited
increased sensitivity to cisplatin [3]: 2.5 fold
increased sensitivity to cisplatin [4]: 3 fold
increased sensitivity to cisplatin ([1]; PC3 cells expressing dn-jun vs control cells): greater than 7 fold
increased sensitivity to cisplatin ([1]; PC3 cells expressing dn-jun vs vector control cells): greater than 9 fold

B2: c-jun: c-jun transcription factor, the SAPK substrate, with increased expression in T98G cells (protein, UniProt P05412 1-331, looked up)
Transcription factor Jun: B1 Transcription factor Jun with A63S, A73S
viability of cells to cisplatin exposure (T98G glioblastoma cells; increased expression of c-jun in T98G cells): somewhat increased
